Measurements: patent publication US20070232492A1, “Herbicidal Composition” (Ishihara Sangyo Kaisha, LTD., priority 2004, published 2007)
Read-outs that look alike come from different tables or passages of the source.

Experiments:
Type in all cases: in vivo
[1] = test system: barnyardgrass (Echinochloa oryzicola vasing); experiment: Growth inhibition of barnyardgrass in paddy soil pots, application under submerged condition, visual rating (observed value) and Colby expected value; conditions: for inhibition at 500 g/ha: 5 g/a; for inhibition at 1000 g/ha: 10 g/a
Excerpt: (§1) When the herbicidal activity in a case where two active ingredients are combined, is larger than the simple sum of the respective herbicidal activities of the two active ingredients (the expected activity), it is called a synergistic effect. The activity expected by the combination of two active ingredients can be calculated as follows (Colby S. R., “Weed”, vol. 15, p. 20-22, 1967). E=p+q−(p×q÷100) where p: growth inhibition rate when treated with x (g/a) of herbicide X,
(§2) q: growth inhibition rate when treated with y (g/a) of herbicide Y,
(§3) E: growth inhibition rate expected when treated with x (g/a) of herbicide X and y (g/a) of herbicide Y.
(§4) Namely, when the actual growth inhibition rate (observed value) is larger than the growth inhibition rate by the above calculation (expected value), the activity by the combination can be regarded as showing a synergistic effect.
Paddy field soil was put into a 1/10,000 are pot, and seeds of barnyardgrass (Echinochloa oryzicola vasing) were sown and left to stand under an irrigated condition with a water depth of 3.5 cm. When barnyardgrass reached 2.0 to 2.5 leaf stage, wettable powders of compound A2 and compound (B1.1) were, respectively, diluted with water and applied under submerged condition so that the active ingredients became the prescribed amounts, respectively. The state of growth was visually observed 21 days after application, and the growth inhibition rate (%) evaluated in accordance with the following evaluation standard (observed value) and the growth inhibition rate (%) calculated by the above-mentioned Colby method (expected value) are shown in Table 1.
(§5) Growth inhibition rate (%)=0% (equivalent to the non-treated area) to 100% (complete kill)
(§6) Paddy field soil was put into a 1/10,000 are pot, and seeds of barnyardgrass (Echinochloa oryzicola vasing) were sown and left to stand under an irrigated condition with a water depth of 3.5 cm. When barnyardgrass reached 2.0 to 2.5 leaf stage, wettable powders of compound A2 and compound (B2.1) were, respectively, diluted with water and applied under submerged condition so that the active ingredients became the prescribed amounts, respectively. The state of growth was visually observed 21 days after application, and evaluation and calculation were carried out in the same manner as in the above Test Example 1.
as §6, with “leaf stage, a wettable powder” for “leaf stage, wettable powders”, “a wettable powder of compound” for “stage, wettable powders of compound”, “A2 and an emulsifiable concentrate of compound (B3.1)” for “A2 and compound (B2.1)”, “of compound (B3.1) were, respectively,” for “and compound (B2.1) were, respectively,”
as §6, with “(B4.1)” for “(B2.1)”
Paddy field soil was put into a 1/10,000 are pot, and seeds of barnyardgrass (Echinochloa oryzicola vasing) were sown and left to stand under an irrigated condition with a water depth of 3.5 cm. […]

[2] = test system: flatsedge (Cyperus serotinus); experiment: Growth inhibition of flatsedge (planted tubers) in paddy soil pots, application under submerged condition, visual rating and Colby expected value
Excerpt: as §1, §2, §3, §4, §5
(§7) Paddy field soil was put into a 1/10,000 are pot, and tubers of flatsedge (Cyperus serotinus) were planted and left to stand under an irrigated condition with a water depth of 3.5 cm. When flatsedge reached 2.8 to 3.2 leaf stage, wettable powders of compound A2 and compound (B1.2) were, respectively, diluted with water and applied under submerged condition so that the active ingredients became the prescribed amounts, respectively. The state of growth was visually observed 29 days after application, and evaluation and calculation were carried out in the same manner as in the above Test Example 1.
Paddy field soil was put into a 1/3,000 are pot, and tubers of flatsedge (Cyperus serotinus) were planted and left to stand under an irrigated condition with a water depth of 3.5 cm. When flatsedge reached 4 leaf stage, a wettable powder of compound A2 and an emulsifiable concentrate of compound C4 were, respectively, diluted with water and applied under submerged condition so that the active ingredients became the prescribed amounts, respectively. The state of growth was visually observed 21 days after application, and the growth inhibition rate (%) evaluated in the same manner as in the above Test Example 1 (observed value) and the growth inhibition rate (%) calculated by the above-mentioned Colby method (expected value) are shown in Table 32.
as §7, with “2.5” for “2.8”, “3.0” for “3.2”, “A2, compound (D2.3)” for “A2”, “(B4.1)” for “(B1.2)”, “30” for “29”, “evaluated” for “evaluation and calculation were carried out”
as §7, with “2.5” for “2.8”, “3.0” for “3.2”, “A2, compound (D2.3)” for “A2”, “(B6.1)” for “(B1.2)”, “30” for “29”, “evaluated” for “evaluation and calculation were carried out”
Paddy field soil was put into a 1/10,000 are pot, and tubers of flatsedge (Cyperus serotinus) were planted and left to stand under an irrigated condition with a water depth of 3.5 cm. When flatsedge reached 2.5 to 3.0 leaf stage, wettable powders of compound A2, compound (D2.3) and compound (B8.1) were, respectively, diluted with water and applied under submerged condition so that the active ingredients became the prescribed amounts, respectively. […]

[3] = test system: Japanese bulrush (Scirpus juncoides); experiment: Growth inhibition of Japanese bulrush in paddy soil pots, application under submerged condition, visual rating and Colby expected value; conditions: 2 leaf stage, 19 days after application
Excerpt: as §1, §2, §3, §4, §5
(§8) Paddy field soil was put into a 1/10,000 are pot, and seeds of Japanese bulrush (Scirpus juncoides) were sown and left to stand under an irrigated condition with a water depth of 3.5 cm. When Japanese bulrush reached 2.3 to 2.6 leaf stage, a wettable powder of compound A2 and granules of compound (B7.1) were, respectively, diluted with water and applied under submerged condition so that the active ingredients became the prescribed amounts, respectively. The state of growth was visually observed 10 days after application, and evaluation and calculation were carried out in the same manner as in the above Test Example 1.
as §8, with “an emulsifiable concentrate” for “granules”, “(B3.1)” for “(B7.1)”
(§9) Paddy field soil was put into a 1/10,000 are pot, and seeds of Japanese bulrush (Scirpus juncoides) were sown and left to stand under an irrigated condition with a water depth of 3.5 cm. When Japanese bulrush reached 2 leaf stage, wettable powders of compound A2, C2 and C4 and granules of compound C6 were, respectively, diluted with water and applied under submerged condition so that the active ingredients became the prescribed amounts, respectively.
Paddy field soil was put into a 1/10,000 are pot, and seeds of Japanese bulrush (Scirpus juncoides) were sown and left to stand under an irrigated condition with a water depth of 3.5 cm. When Japanese bulrush reached 2 leaf stage, wettable powders of compound A2, C2 and C4 and granules of compound C6 were, respectively, diluted with water and applied under submerged condition so that the active ingredients became the prescribed amounts, respectively. The state of growth was visually observed 19 days after application, and the growth inhibition rate (%) evaluated in the same manner as in the above Test Example 1 (observed value) and the growth inhibition rate (%) calculated by the above-mentioned Colby method (expected value) are shown in Tables 36, 37 and 38.
as §9, with “3” for “2”, “A2” for “A2, C2”, “and” for “and C4 and granules of”, “(D2.2)” for “C6”, “respectively. […]” for “respectively.”

[4] = Echinochloa oryzicola, soil, 336 h, 2.8 to 3.4 leaf stage, 14 days after application, Test Examples 66-72, read-out: Growth inhibition rate (%) Observed
[5] = Echinochloa oryzicola, soil, 504 h, 2.0 to 2.5 leaf stage, 21 days after application, read-out: Growth inhibition rate (%) Observed

With COc1ccsc1CN(C(=O)CCl)c1c(C)cccc1C [Compound (B3.2), thenylchlor] as the compound, how does the inhibition at 93.8 g/ha ([1]; Echinochloa oryzicola, soil, 504 h, 0.938 g/a, 2.8 to 3.2 leaf stage, 21 days after application, read-out: Growth inhibition rate (%) Observed) read?
Its inhibition at 93.8 g/ha is 5%.

What about the inhibition at 94 g/ha ([1]; Echinochloa oryzicola, soil, 504 h, 0.94 g/a, 2.8 to 3.2 leaf stage, 21 days after application, Test Examples 39-43, read-out: Growth inhibition rate (%) Observed) of the same compound?
Its inhibition at 94 g/ha is 0%.

And the inhibition at 187.5 g/ha ([1]; Echinochloa oryzicola, soil, 504 h, 1.875 g/a, 2.8 to 3.2 leaf stage, 21 days after application, read-out: Growth inhibition rate (%) Observed)?
Its inhibition at 187.5 g/ha is 27%.

And the inhibition at 188 g/ha ([1]; Echinochloa oryzicola, soil, 504 h, 1.88 g/a, 2.8 to 3.2 leaf stage, 21 days after application, Test Examples 39-43, read-out: Growth inhibition rate (%) Observed)?
Its inhibition at 188 g/ha is 15%.

What about the inhibition at 250 g/ha ([2]; Cyperus serotinus, soil, 720 h, 2.5 g/a, 2.5 to 3.0 leaf stage, 30 days after application, Test Examples 46-60, read-out: Growth inhibition rate (%) Observed) of the same compound?
Its inhibition at 250 g/ha is 35%.

For CCOC(=O)CCCOc1ccc(Cl)cc1C [Compound C4, MCPB ethyl], which “Growth inhibition rate (%) Observed” value ([3]; 0.5 g/a, Test Example 33) is on record?
Its value is 10%.

What about the “Growth inhibition rate (%) Observed” value ([3]; 1.0 g/a, Test Example 33) of the same compound?
Its value is 27%.

What about the “Growth inhibition rate (%) Observed” value ([3]; 1.5 g/a, Test Example 34) of the same compound?
Its value is 20%.

And the “Growth inhibition rate (%) Observed” value ([3]; 2.0 g/a, Test Example 33)?
The value was 55%.

What about the “Growth inhibition rate (%) Observed” value ([3]; 10 g/a, Test Example 34) of the same compound?
Its value is 68%.

And the “Growth inhibition rate (%) Observed” value ([2]; 2.0 g/a, 4 leaf stage, 21 days after application)?
The value was 33%.

What about the “Growth inhibition rate (%) Observed” value ([2]; 2.4 g/a, 4 leaf stage, 21 days after application) of the same compound?
The value was 57%.

Which inhibition at 37.5 g/ha ([1]; Echinochloa oryzicola, soil, 504 h, 0.375 g/a, 2.8 to 3.2 leaf stage, 21 days after application, read-out: Growth inhibition rate (%) Observed) does the source give for CCC1(CC2(c3cccc(Cl)c3)CO2)C(=O)c2ccccc2C1=O (stereo not drawn) [Compound (B10.1), indanofan] here?
Its inhibition at 37.5 g/ha is 0%.

And the inhibition at 75 g/ha ([1]; Echinochloa oryzicola, soil, 504 h, 0.75 g/a, 2.8 to 3.2 leaf stage, 21 days after application, read-out: Growth inhibition rate (%) Observed)?
The inhibition at 75 g/ha was 13%.

What about the inhibition at 56.3 g/ha ([1]; Echinochloa oryzicola, soil, 528 h, 0.563 g/a, 2.1 to 3.2 leaf stage, 22 days after application, read-out: Growth inhibition rate (%) Observed) of the same compound?
The inhibition at 56.3 g/ha was 40%.

What about the inhibition at 150 g/ha ([2]; Cyperus serotinus, soil, 720 h, 1.5 g/a, 2.5 to 3.0 leaf stage, 30 days after application, Test Examples 46-60, read-out: Growth inhibition rate (%) Observed) of the same compound?
Its inhibition at 150 g/ha is 25%.

CC(C)(NC(=O)C(Br)C(C)(C)C)c1ccccc1 (stereo not drawn) [Compound (B6.1), bromobutide] was tested. Which inhibition at 500 g/ha [1, 4] did it give?
The inhibition at 500 g/ha was 10%.

What about the inhibition at 1000 g/ha [1, 4] of the same compound?
The inhibition at 1000 g/ha was 10%.

And the inhibition at 500 g/ha [1, 5]?
The inhibition at 500 g/ha was 0%.

What about the inhibition at 1000 g/ha [1, 5] of the same compound?
The inhibition at 1000 g/ha was 10%.

And the inhibition at 1000 g/ha ([2]; Cyperus serotinus, soil, 720 h, read-out: Growth inhibition rate (%) Observed)?
The inhibition at 1000 g/ha was 35%.

How did the “Growth inhibition rate (%) Observed” value ([1]; 0.525 g/a, 2.8 to 3.2 leaf stage, 21 days after application) turn out when CCN(CC)C(=O)n1cnc(S(=O)(=O)c2c(C)cc(C)cc2C)n1 [Compound (B9.1), cafenstrole] was run?
The value was 2%.

What about the “Growth inhibition rate (%) Observed” value ([1]; 0.788 g/a, 2.1 to 3.2 leaf stage, 21 days after application) of the same compound?
Its value is 57%.

And the “Growth inhibition rate (%) Observed” value ([1]; 0.788 g/a, 2.8 to 3.2 leaf stage, 19 days after application, Test Examples 62-65)?
The value was 10%.

What about the “Growth inhibition rate (%) Observed” value ([1]; 1.05 g/a, 2.8 to 3.2 leaf stage, 21 days after application) of the same compound?
The value was 10%.

And the “Growth inhibition rate (%) Observed” value ([1]; 1.58 g/a, 2.8 to 3.2 leaf stage, 19 days after application, Test Examples 62-65)?
Its value is 10%.

And the “Growth inhibition rate (%) Observed” value ([2]; 2.1 g/a, 2.5 to 3.0 leaf stage, 30 days after application, Test Examples 46-60)?
The value was 35%.

For CS(=O)(=O)c1ccc(C(=O)C2=C(Sc3ccccc3)C3CCC(C3)C2=O)c(Cl)c1 (stereo not drawn) [Compound (B4.1), benzobicyclon], which inhibition at 100 g/ha ([1]; Echinochloa oryzicola, soil, 504 h, 1 g/a, 2.0 to 2.5 leaf stage, 21 days after application, read-out: Growth inhibition rate (%) Observed) is on record?
The inhibition at 100 g/ha was 13%.

And the inhibition at 200 g/ha ([1]; Echinochloa oryzicola, soil, 504 h, 2 g/a, 2.0 to 2.5 leaf stage, 21 days after application, read-out: Growth inhibition rate (%) Observed)?
The inhibition at 200 g/ha was 33%.

And the inhibition at 200 g/ha ([2]; Cyperus serotinus, soil, 720 h, 2 g/a, 2.5 to 3.0 leaf stage, 30 days after application, Test Examples 46-60, read-out: Growth inhibition rate (%) Observed)?
Its inhibition at 200 g/ha is 60%.
